Columns and labels:
[1] = cited from earlier work; for Degree of Sweetness: sucrose per unit concentration Brix 1 defined as 1
[2] = biological target: T1, sweet taste receptor (T1R2/T1R3) (Homo sapiens, UniProt Q7RTX0+Q8TE23); assay: Sensory evaluation of remaining sweetness intensity of sweet substances with lactisole, relative to sucrose + lactisole; settings: 100 ppm lactisole; solution 15-1 (12 w/v % sucrose + 100 ppm lactisole) = 100%; n=4
T1 sequence (Q8TE23 20-839): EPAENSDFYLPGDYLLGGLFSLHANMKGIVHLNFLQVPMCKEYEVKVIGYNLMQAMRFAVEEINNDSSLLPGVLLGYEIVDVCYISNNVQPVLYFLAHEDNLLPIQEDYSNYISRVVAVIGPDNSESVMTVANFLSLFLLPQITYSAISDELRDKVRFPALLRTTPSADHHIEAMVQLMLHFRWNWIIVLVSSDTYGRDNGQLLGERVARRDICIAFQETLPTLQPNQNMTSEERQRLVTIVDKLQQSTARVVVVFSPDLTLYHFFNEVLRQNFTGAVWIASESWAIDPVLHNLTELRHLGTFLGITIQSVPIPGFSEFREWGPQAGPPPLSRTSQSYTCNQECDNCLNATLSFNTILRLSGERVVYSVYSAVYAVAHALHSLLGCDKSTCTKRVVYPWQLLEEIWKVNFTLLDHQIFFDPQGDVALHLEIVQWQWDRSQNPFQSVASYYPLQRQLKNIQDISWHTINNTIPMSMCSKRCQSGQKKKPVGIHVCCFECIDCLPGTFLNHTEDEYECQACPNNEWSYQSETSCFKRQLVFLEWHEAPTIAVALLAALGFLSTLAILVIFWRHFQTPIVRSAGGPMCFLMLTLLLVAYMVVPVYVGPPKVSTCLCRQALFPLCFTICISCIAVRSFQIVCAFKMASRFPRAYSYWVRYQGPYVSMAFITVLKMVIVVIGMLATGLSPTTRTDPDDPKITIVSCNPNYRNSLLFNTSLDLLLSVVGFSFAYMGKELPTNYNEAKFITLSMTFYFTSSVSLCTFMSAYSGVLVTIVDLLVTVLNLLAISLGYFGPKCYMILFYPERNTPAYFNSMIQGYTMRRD
T1 sequence (Q7RTX0 21-852): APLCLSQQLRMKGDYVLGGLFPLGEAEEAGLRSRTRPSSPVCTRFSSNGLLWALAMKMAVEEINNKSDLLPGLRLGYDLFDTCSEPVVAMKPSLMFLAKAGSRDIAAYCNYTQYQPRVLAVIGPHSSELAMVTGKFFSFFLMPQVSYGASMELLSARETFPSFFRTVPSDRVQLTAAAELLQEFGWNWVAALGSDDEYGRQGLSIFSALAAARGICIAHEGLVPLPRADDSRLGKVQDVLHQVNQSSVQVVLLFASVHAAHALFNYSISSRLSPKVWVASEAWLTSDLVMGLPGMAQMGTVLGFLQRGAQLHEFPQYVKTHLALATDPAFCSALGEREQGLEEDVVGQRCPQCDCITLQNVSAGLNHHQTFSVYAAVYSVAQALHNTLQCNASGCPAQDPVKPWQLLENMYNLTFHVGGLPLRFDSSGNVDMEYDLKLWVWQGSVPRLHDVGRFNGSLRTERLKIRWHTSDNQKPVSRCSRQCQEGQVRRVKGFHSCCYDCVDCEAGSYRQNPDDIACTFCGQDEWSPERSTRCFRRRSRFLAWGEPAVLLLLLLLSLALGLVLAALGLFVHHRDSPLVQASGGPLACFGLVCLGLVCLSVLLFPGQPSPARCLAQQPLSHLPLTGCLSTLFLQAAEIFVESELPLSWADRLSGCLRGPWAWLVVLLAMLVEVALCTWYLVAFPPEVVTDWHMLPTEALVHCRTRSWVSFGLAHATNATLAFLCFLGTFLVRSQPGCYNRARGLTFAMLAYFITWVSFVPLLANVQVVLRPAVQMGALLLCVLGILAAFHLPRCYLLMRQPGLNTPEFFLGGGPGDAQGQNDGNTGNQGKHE

[3] = biological target: T1, sweet taste receptor (T1R2/T1R3); assay: Sensory evaluation (spit test, VAS scale) of sweetness intensity with lactisole, relative to lactisole-free solution; format: in vivo; parameters: The sweet taste receptor is expressed naturally on the cell surface of each taste cell; from tissue; host or cells: tongue (taste cells) of living human panelists; spit test; settings: remaining sweetness with 100 ppm lactisole expressed as sucrose solution

SMILES	Relative sweetness intensity (%) [2] [%]	sweetness level corresponding to sucrose solution [3] [w/v %]	Degree of Sweetness [1]	sweetness intensity relative to the sweetness intensity of sucrose ([1]; estimate used to design sample solutions) [times]
O=C[C@H](O)[C@H](O)[C@H](O)[C@H](O)CO [Allose]			0.8	
O=C(CO)[C@H](O)[C@H](O)[C@H](O)CO [D-allulose]			0.7	
OC[C@H]1O[C@H](O[C@H]2[C@H](O)[C@@H](O)[C@H](O)O[C@@H]2CO)[C@H](O)[C@@H](O)[C@@H]1O [Maltose]			0.4	

Second part, led by results:

Relative sweetness intensity (%) [2] [%]	sweetness level corresponding to sucrose solution [3] [w/v %]	SMILES	Degree of Sweetness [1]	sweetness intensity relative to the sweetness intensity of sucrose ([1]; estimate used to design sample solutions) [times]
≥ 50		O=C(CO)[C@@H](O)[C@@H](O)[C@H](O)CO [D-tagatose]	0.9	
	0.144	OC[C@H]1O[C@H](O[C@]2(CCl)O[C@H](CCl)[C@@H](O)[C@@H]2O)[C@H](O)[C@@H](O)[C@H]1Cl [sucralose]		600
	2.0	OC[C@H]1O[C@@](CO)(O[C@H]2O[C@H](CO)[C@@H](O)[C@H](O)[C@H]2O)[C@@H](O)[C@@H]1O [sucrose]	1	

From patent US20210084950A1, “SWEETENING COMPOSITION INDUCING SWEETNESS RESPONSE THROUGH MOLECULE OTHER THAN SWEET TASTE RECEPTOR (T1R2/T1R3)” (SUNTORY HOLDINGS LIMITED, priority 2018, published 2021)
